Patent US11168087B2, “Substituted imidazo[1,2-b]pyridazines, substituted imidazo[1,5-b]pyridazines, related compounds, and their use in the treatment of medical disorders” (BIAL—R&D Investments, S.A., priority 2016, dated 2021)

Target: T1, glucocerebrosidase (Gcase) (Homo sapiens, UniProt P04062)
T1 construct: micellar solution containing 10 nM GCase and 100 nM saposin C
T1 sequence (P04062 40-536): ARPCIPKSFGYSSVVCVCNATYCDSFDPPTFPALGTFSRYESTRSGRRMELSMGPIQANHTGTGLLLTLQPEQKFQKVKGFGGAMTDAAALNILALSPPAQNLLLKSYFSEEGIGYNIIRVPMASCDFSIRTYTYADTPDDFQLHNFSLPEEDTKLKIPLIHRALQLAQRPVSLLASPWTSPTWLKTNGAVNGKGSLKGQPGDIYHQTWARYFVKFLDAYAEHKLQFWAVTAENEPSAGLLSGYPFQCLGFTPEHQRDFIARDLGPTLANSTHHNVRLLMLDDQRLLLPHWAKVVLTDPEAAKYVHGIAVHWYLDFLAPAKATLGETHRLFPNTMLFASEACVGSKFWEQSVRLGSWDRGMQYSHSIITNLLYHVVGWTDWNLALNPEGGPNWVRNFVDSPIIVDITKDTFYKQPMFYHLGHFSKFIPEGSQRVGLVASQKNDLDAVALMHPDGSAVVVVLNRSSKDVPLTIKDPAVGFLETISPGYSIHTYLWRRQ
Assay: Glucocerebrosidase (Gcase) activation assay, 4-methylumbelliferyl-beta-D-glucopyranoside substrate, with saposin C
Assay type: biochemical
Conditions: 0.25 h; for activation at 0.1 µM: read-out: Percent Gcase Activation 0.1 μM Test Compound; for activation at 1 µM: read-out: Percent Gcase Activation 1 μM Test Compound
Description: The ability of exemplary compounds to activate glucocerebrosidase (Gcase) was measured.
A 484 μL aliquot of a 1.0 mg/mL solution of phosphatidylserine (PS) (Sigma P7769) in chloroform was evaporated under a stream of nitrogen for 1 hour. The lipid film was dissolved over 4 minutes of vigorous vortexing in 40 mL of 176 mM K2HPO4/50 mM citric acid (pH 4.7) containing 7.5 μL of triton X-100, resulting in a mixed micellar preparation with a composition of 0.32 mM triton and 0.37 mol % PS. 4-Methylumbelliferyl-beta-D-glucopyranoside (ACROS-337025000) was dissolved in the micellar solution to a final concentration of 2 mM for use as the reaction substrate.
Test compounds were diluted to the desired concentrations with dimethylsulfoxide (DMSO) from 10 mM stocks, and 0.41 μL of the DMSO compound mixture was added to 100 μL of micellar solution containing 10 nM GCase and 100 nM saposin C (Enzo ALX-201-262-C050). Pre-incubation was allowed to occur for 30 minutes at room temperature, after which the reaction was initiated by combining 25 μL of substrate solution with 25 μL of compound/GCase/saposin mixture. The reaction proceeded for 15 minutes at room temperature and was stopped by adding 150 μL of 1M glycine, pH 12.5. The endpoint of the reaction was monitored by measuring fluorescence intensity (excitation: 365 nm; emission: 440 nm) on a SpectraMax i3 instrument (Molecular Devices). Test compounds were screened at 1.0 and 0.1 μM final concentration, and subsequent 8-point dose response curves were obtained using 3-fold dilutions from a maximum final concentration of 5 μM.
The symbol “+” indicates less than 5% Gcase activation; the symbol “++” indicates Gcase activation in the range of 5% up to 20%; and the symbol “+++” indicates Gcase activation greater than 20%.

## CCCCCCOC1CCC(NC(=O)c2cnc3c(C)cc(Cl)nn23)CC1 (stereo not shown)
  activation at 0.1 µM: 5 to 20%
  activation at 1 µM: > 20%

## Cc1cc(C)c2ncc(C(=O)Nc3ccc(-c4cocn4)cc3)n2n1
  activation at 0.1 µM: < 5%
  activation at 1 µM: > 20%

## C#Cc1ccc(NC(=O)c2cnc3c(C)cc(C)nn23)cc1
  activation at 0.1 µM: 5 to 20%
  activation at 1 µM: > 20%

## Cc1cc(-c2ccc(F)cc2C#N)nn2c(C(=O)N[C@H](C)C3CC3)cnc12
  activation at 0.1 µM: < 5%
  activation at 1 µM: > 20%

## Cc1cc(-c2ccc(F)cc2C#N)nn2c(C(=O)N[C@@H](C)C3CC3)ncc12 [(S)-2-(2-Cyano-4-fluorophenyl)-N-(1-cyclopropylethyl)-4-methylimidazo[1,5-b]pyridazine-7-carboxamide]
  activation at 0.1 µM: 5 to 20%
  activation at 1 µM: > 20%

## Cc1cc(-c2cccc(F)c2C#N)nn2c(C(=O)N[C@@H](C)C3CC3)cnc12 [(S)-6-(2-Cyano-3-fluorophenyl)-N-(1-cyclopropylethyl)-8-methylimidazo[1,2-b]pyridazine-3-carboxamide]
  activation at 0.1 µM: > 20%
  activation at 1 µM: > 20%

## Cc1cc(-c2cccc(C#N)c2)nn2c(C(=O)NC(C3CC3)C(F)(F)F)cnc12 (stereo not shown)
  activation at 0.1 µM: > 20%
  activation at 1 µM: > 20%

## CCC(NC(=O)c1nsc2c(C)cc(C)nc12)c1ccccc1 (stereo not shown) [5,7-Dimethyl-N-(1-phenylpropyl)isothiazolo[4,5-b]pyridine-3-carboxamide]
  activation at 0.1 µM: 5 to 20%
  activation at 1 µM: > 20%

## Cc1cc(-c2ccon2)nn2c(C(=O)NC(C3CC3)C(F)(F)F)cnc12 (stereo not shown)
  activation at 0.1 µM: 5 to 20%
  activation at 1 µM: > 20%

## Cc1cc(-c2cccc(Cl)n2)nn2c(C(=O)NC(C)C(F)(F)F)cnc12 (stereo not shown)
  activation at 0.1 µM: 5 to 20%
  activation at 1 µM: > 20%

## CCC(NC(=O)c1coc2c(C)cc(C)nc12)c1ccccc1 (stereo not shown) [5,7-Dimethyl-N-(1-phenylpropyl)furo[3,2-b]pyridine-3-carboxamide]
  activation at 0.1 µM: > 20%
  activation at 1 µM: > 20%

## Cc1cc(C)c2onc(C(=O)Nc3ccc4c(c3)CCC4)c2n1 [N-(2,3-Dihydro-1H-inden-5-yl)-5,7-dimethylisoxazolo[4,5-b]pyridine-3-carboxamide]
  activation at 0.1 µM: 5 to 20%
  activation at 1 µM: > 20%

## Cc1cc(-c2ccns2)nn2c(C(=O)NC(C)(C)C3CC3)cnc12
  activation at 0.1 µM: 5 to 20%
  activation at 1 µM: > 20%

## O=C(NC1CCCc2ccccc21)c1cnc2ccc(Cl)nn12 (stereo not shown)
  activation at 0.1 µM: < 5%
  activation at 1 µM: 5 to 20%

## Cc1cc(-c2cncc(Cl)c2)nn2c(C(=O)N[C@@H](C3CC3)C(F)(F)F)cnc12
  activation at 0.1 µM: > 20%
  activation at 1 µM: > 20%

## Cc1cc(-c2cccnc2)nn2c(C(=O)NC(C3CC3)C(F)(F)F)cnc12 (stereo not shown)
  activation at 0.1 µM: < 5%
  activation at 1 µM: > 20%

## CCC(NC(=O)c1noc2c(C)cc(C)nc12)c1ccccc1 (stereo not shown) [5,7-Dimethyl-N-(1-phenylpropyl)isoxazolo[4,5-b]pyridine-3-carboxamide]
  activation at 0.1 µM: 5 to 20%
  activation at 1 µM: > 20%

## CCCCCO[C@H]1CC[C@H](NC(=O)c2cnc3c(C)cc(C)nn23)CC1
  activation at 0.1 µM: 5 to 20%
  activation at 1 µM: > 20%

## Cc1cc(-c2cc(C)c3ncc(C(=O)N[C@@H](C4CC4)C(F)(F)F)n3n2)sn1
  activation at 0.1 µM: 5 to 20%
  activation at 1 µM: > 20%

## Cc1cc(-c2sccc2C#N)nn2c(C(=O)N[C@@H](C3CC3)C(F)(F)F)cnc12
  activation at 0.1 µM: > 20%
  activation at 1 µM: > 20%

## COc1cccc(-c2cc(C)c3ncc(C(=O)NC(C4CC4)C(F)(F)F)n3n2)c1 (stereo not shown)
  activation at 0.1 µM: > 20%
  activation at 1 µM: > 20%

## CCC(NC(=O)c1cnc2ccc(Cl)nn12)c1ccccc1 (stereo not shown)
  activation at 0.1 µM: < 5%
  activation at 1 µM: < 5%

## Cc1cc(-c2ccc3ocnc3c2)nn2c(C(=O)NC(C)C(F)(F)F)cnc12 (stereo not shown)
  activation at 0.1 µM: > 20%
  activation at 1 µM: > 20%

## Cc1cc(-c2ccc3c(c2)ncn3C)nn2c(C(=O)N[C@H](C3CC3)C(F)(F)F)cnc12
  activation at 0.1 µM: 5 to 20%
  activation at 1 µM: > 20%

## COc1cccc(-c2cc(C)c3ncc(C(=O)NC(C4CC4)C4CC4)n3n2)c1
  activation at 0.1 µM: > 20%
  activation at 1 µM: > 20%

## Cc1cc(C#N)c(-c2cc(C)c3ncc(C(=O)N[C@@H](C)C(F)(F)F)n3n2)o1
  activation at 0.1 µM: > 20%
  activation at 1 µM: > 20%

## Cc1cc(-c2ccc3ocnc3c2)nn2c(C(=O)N[C@@H](C3CC3)C(F)(F)F)cnc12
  activation at 0.1 µM: > 20%
  activation at 1 µM: > 20%

## Cc1cc(C)c2cnc(C(=O)NC(C)(C)C3CC3)n2n1
  activation at 0.1 µM: < 5%
  activation at 1 µM: > 20%

## Cc1cc(-c2ccc(F)cc2C#N)nn2c(C(=O)N[C@@H](C3CC3)C(F)(F)F)cnc12
  activation at 0.1 µM: > 20%
  activation at 1 µM: > 20%

## Cc1cc(-c2ccc(F)cc2)nn2c(C(=O)N[C@@H](C)C3CC3)cnc12
  activation at 0.1 µM: 5 to 20%
  activation at 1 µM: > 20%

## Cc1cc(-c2cccc(F)c2)nn2c(C(=O)N[C@@H](C3CC3)C(F)(F)F)ncc12 [(S)—N-(1-Cyclopropyl-2,2,2-trifluoroethyl)-2-(3-fluorophenyl)-4-methylimidazo[1,5-b]pyridazine-7-carboxamide]
  activation at 0.1 µM: > 20%
  activation at 1 µM: > 20%

## COc1cccc(-c2cc(C)c3ncc(C(=O)NC(C4CC4)C(F)(F)F)n3n2)n1 (stereo not shown)
  activation at 0.1 µM: > 20%
  activation at 1 µM: > 20%

## Cc1cc(-c2occc2C#N)nn2c(C(=O)NC(C3CC3)C(F)(F)F)cnc12 (stereo not shown)
  activation at 0.1 µM: > 20%
  activation at 1 µM: > 20%

## Cc1cc(-c2ccc(C#N)o2)nn2c(C(=O)N[C@@H](C3CC3)C(F)(F)F)ncc12
  activation at 0.1 µM: > 20%
  activation at 1 µM: > 20%

## Cc1cc(-c2ccc(F)cc2)nn2c(C(=O)N[C@@H](C)C3CC3)ncc12
  activation at 0.1 µM: 5 to 20%
  activation at 1 µM: > 20%

## Cc1cc(C)c2onc(C(=O)NC3CCCc4ccccc43)c2n1 (stereo not shown) [5,7-Dimethyl-N-(1,2,3,4-tetrahydronaphthalen-1-yl)isoxazolo[4,5-b]pyridine-3-carboxamide]
  activation at 0.1 µM: 5 to 20%
  activation at 1 µM: > 20%

## Cc1cc(-c2ccc3ncn(C)c3c2)nn2c(C(=O)N[C@@H](C3CC3)C(F)(F)F)cnc12 [(S)—N-(1-Cyclopropyl-2,2,2-trifluoroethyl)-8-methyl-6-(1-methyl-1H-benzo[d]imidazol-6-yl)imidazo[1,2-b]pyridazine-3-carboxamide]
  activation at 0.1 µM: 5 to 20%
  activation at 1 µM: > 20%

## Cc1cc(-c2ccc(F)cc2C#N)nn2c(C(=O)N[C@H](C)C(F)(F)F)cnc12
  activation at 0.1 µM: < 5%
  activation at 1 µM: 5 to 20%

## Cc1cc(N2CC(C(C)C)OC2=O)nn2c(C(=O)N[C@@H](C3CC3)C(F)(F)F)cnc12 (stereo partly drawn) [N—((S)-1-Cyclopropyl-2,2,2-trifluoroethyl)-6-(5-isopropyl-2-oxooxazolidin-3-yl)-8-methylimidazo[1,2-b]pyridazine-3-carboxamide]
  activation at 0.1 µM: < 5%
  activation at 1 µM: > 20%

## Cc1cc(-c2ccc(F)cc2C#N)nn2c(C(=O)NC(C)C(F)(F)F)cnc12 (stereo not shown)
  activation at 0.1 µM: 5 to 20%
  activation at 1 µM: > 20%

## Cc1cc(C)c2snc(C(=O)Nc3ccc4c(c3)CCC4)c2n1 [N-(2,3-Dihydro-1H-inden-5-yl)-5,7-dimethylisothiazolo[4,5-b]pyridine-3-carboxamide]
  activation at 0.1 µM: > 20%
  activation at 1 µM: > 20%
